Data reported in article PMC12412324, “Design, synthesis, and evaluation of novel pinane-based thiazolidione derivatives with anti-glioblastoma activity” (Journal of Enzyme Inhibition and Medicinal Chemistry, 2025).
Values joined by “and” are separate entries in the source; they are usually repeats but may differ in a detail not shown here. Equal entries are not always repeated.

Columns and labels:
CDK2 [1] = target: T1, CDK2 (Homo sapiens, UniProt P24941); assay: Cellular thermal shift assay (CETSA); assay type: binding; conditions: U251, C5 50 and 100 µM, 40–70 °C, compared to control group
T1 construct: endogenous in cells; host or cells: U251 cells (lysate)
Protocol: U251 cells in logarithmic growth were harvested and lysed with protease inhibitors and phosphorylase inhibitors, followed by ultrasonic disruption and ice extraction for 1 h. After that, the lysate was divided into three parts evenly and incubated with DMSO, 50 µM of C5, and 100 µM of C5 for 1 h at room temperature. Subsequently, samples were heated in the PCR machine for 10 min in indicated temperature gradients (40–70 °C), respectively. Finally, samples were centrifuged at 14,000 × g for 30 min at 4 °C to remove aggregates, and the resulting supernatant was analysed with western blotting.

CDK2 [2] = target: T1, CDK2; assay: Drug affinity responsive target stability (DARTS) assay; assay type: binding; conditions: U251 lysate, C5 50 and 100 μM, pronase 30 min, versus DMSO
Protocol: U251 cells were plated in 10 cm dishes. After overnight, the cells were washed by precooled PBS, and lysed by NP-40 lysis buffer for 30 min. Next, lysates were centrifuged at 13000 rpm for 15 min at 4 °C, and protein concentration was determined using a BCA protein assay kit (Solarbio, PC0020). The supernatants were divided into four 50 μL aliquots and incubated with DMSO or compound C5 (50 and100μM) for 30 min at room temperature. Then, the 5 μL of Pronase (The method of preparing the stock solution is 1 μg of Pronase in 200 μg of lysate, the effect concentration which is diluted by ultrapure water to 200X/400X/600X), and the reaction was stopped by 5× loading buffer. Protein samples were boiled and analysed by using Western blot.

[3] = system: U251 multicellular tumour spheroids; assay: 3D spheroid assay (MCTSs, calcein-AM/PI); assay type: cell-based; conditions: C5 24 h, dose-dependent
Protocol: Malignant glioblastoma tumour cells U251 were seeded in cell-repellent 96-well U-bottom plates (Sbio™), and cultured for 72 h to allow spheroid formation. […] Spheroids were stained with PI and Calcein-AM, and observed under a fluorescence microscope.

U251 cells [4] = assay: Intracellular ROS by flow cytometry (DCFH-DA); assay type: cell-based; conditions: U251, 5 μM C5, DCFH-DA
Protocol: (§1) U251 (1 × 10^5 cells/well) in logarithmic growth phase were transferred into 6-well microplates and cultured for 12 h. Therefore, U251 cells were treated with C5 (0, 2.5, 5, and 10 μM) for 24 h. Annexin V-FITC/PI staining kit (Yeasen, Shanghai, China) was used to detect cell apoptosis. The cell cycle distribution was analysed by staining with a cell cycle analysis kit. Intracellular ROS levels were also detected using a ROS assay kit (Yeasen, Shanghai, China). All assays were performed as per the manufacturer’s instructions, and the stained cells were analysed by flow cytometry (Beckman Coulter, Miami, FL) to quantify apoptosis rates, cell cycle distribution, and ROS levels as appropriate.

U87 = assay: CCK-8 cell viability assay, U87; assay type: cell-based; conditions: CCK-8, 72 h, mean ± SD of three independent experiments
Protocol: (§2) The U87MG cell line (catalogue iCell-h224) and U251MG cell line (catalogue iCell-h219) were purchased from iCell Bioscience Inc (Shanghai) cell bank. T98G cell line was obtained from Yining Zhang’s group. All cells were cultured in DMEM supplemented with 10% (v/v) FBS and penicillin-streptomycin in a humidified incubator at 37 °C under 5% CO2. The different compounds were dissolved in DMSO at the concentration of 10 mM and diluted in serum-free medium. The GBM cells were seeded into 96-well microplates at the density of 6000 cells/well and incubated for 24 h. Fresh media supplemented with different concentrations of the compounds were added, and the cells were cultured for 72 h. The CCK-8 reagent (TargetMol, C0005) was added to each well and the cells were incubated for 4 h at 37 °C. […] the absorbance was measured at […] using a microplate reader (Genios Tecan). An untreated control group was included and its viability was set as 100%. IC50 value of the two probes was calculated using GraphPad Prism 5.0.

U251 = assay: CCK-8 cell viability assay, U251; assay type: cell-based; conditions: CCK-8, 72 h, mean ± SD of three independent experiments
Protocol: as §2

U251 cells [5] = assay: Cell cycle distribution by flow cytometry; assay type: cell-based; conditions: U251, C5 2.5, 5, 10 μM, 48 h
Protocol: as §1, with “Therefore, U251 cells were treated with C5 (0, 2.5, 5, and 10 μM) for 24 h.” left out

U251 cells [6] = assay: Transwell invasion experiment (Matrigel); assay type: cell-based; conditions: U251, C5 2.5, 5, 10 µM, 24 h, dose-dependent
Protocol: Matrigel-coated transwell chambers (24-well; 8-μm pore size, Corning, New York, NY, USA) were used to evaluate the invasion capability of GBM cells. The U251 cells incubated with different doses of C5 (0, 2.5, 5, and 10 μM) for 24 h were seeded on Matrigel-coated transwell chambers at the density of 2 × 10^4/well in a serum-free medium. After culturing for 24 h, the cells that invaded through Matrigel to the lower surface of the membrane were fixed with […] and stained with 0.1% crystal violet. The cells were counted under an inverted microscope in at least 5 random fields per well.

[7] = system: GBM cell lines (U87, T98G, and U251); assay: CCK-8 anti-proliferation, three GBM cell lines taken together; assay type: cell-based; conditions: read-out: IC50 values against all three GBM cell lines
Protocol: as §2

[8] = system: apoptosis-related and autophagy-related proteins in U251 cells; assay: Western blotting of apoptosis-related and autophagy-related proteins; assay type: cell-based; conditions: immunoblot
Protocol: The protein content in the lysates was measured using a BCA protein assay kit, and 20 μg protein per sample was separated by SDS-PAGE and transferred to PVDF membranes (Merck Millipore, Burlington, MA, USA). After blocking with 5% skim milk in Tris buffered saline-Tween (TBS-T) at room temperature for 2h, the blots were incubated overnight with the following primary antibodies at 4 °C: mouse anti-GAPDH (ab8245, 1:10000), rabbit anti-Bax (ab32503, 1:5000), anti-Bcl-2 (ab32124, 1:1000), anti-caspase 3 (ab32351, 1:5000), anti-cleaved caspase 3 (ab32042, 1:500), anti-cleaved PARP-1 (ab32561, 1:1000), anti-LC3B (ab192890, 1:2000), anti-p62 (ab109012, 1:10000), anti-PARP-1 (ab32138, 1:10000). Following three washes with TBS-T, the membranes were incubated with corresponding horseradish peroxidase-conjugated secondary antibodies (1:10000) at room temperature for 90 min, and washed thrice with TBS-T. The bands were visualised using the Minichem@610 Chemiluminescence imager (SAGCEREATION, Beijing) on the chemiluminescence channel.

LO2 = assay: CCK-8 cytotoxicity, normal human cell line LO2; assay type: cell-based
U251 cells [9] = assay: Annexin V-FITC/PI apoptosis flow cytometry; assay type: cell-based; conditions: U251, C5 10 μM, 48 h
Protocol: as §1, with “Therefore, U251 cells were treated with C5 (0, 2.5, 5, and 10 μM) for 24 h.” left out

T98G = assay: CCK-8 cell viability assay, T98G; assay type: cell-based; conditions: CCK-8, 72 h, mean ± SD of three independent experiments
Protocol: as §2

U251 cells [10] = assay: Mitochondrial membrane potential (JC-1); assay type: cell-based; conditions: U251, C5 2.5, 5, 10 μM, 24 h
Protocol: U251 cells were seeded in 6-well microplates at the density of 1.5 × 10^5 cells/well and cultured overnight. Fresh medium containing different doses of C5 (0, 2.5, 5, and 10 μM) was added, and the cells were cultured for 24 h. The cells were stained using the JC-1 kit (Sigma-Aldrich, USA) according to the manufacturer’s instructions and observed by fluorescence microscopy. The changes in the ratio of the red and green fluorescence intensities were calculated to evaluate MMP.

[11] = U251, C5 treatment 24 h, concentration-dependent
[12] = L02, mean ± SD of three independent experiments

IC50 (U87; Homo sapiens, U-87 MG, 72 h)	IC50 (U251; Homo sapiens, U-251, 72 h)	SMILES	IC50 (LO2; [12])	IC50 (T98G; Homo sapiens, T98G, 72 h)	also measured
3.98 ± 0.34 µM	3.12 ± 0.45 µM	CN1C(=O)C(=Cc2ccc(O)cc2)SC1=NN=CC1=CCC2CC1C2(C)C (stereo not shown) [C5, 2-(((6,6-Dimethylbicyclo[3.1.1]hept-2-en-2-yl)methylene)hydrazineylidene)-5–(4-hydroxybenzylidene)-3-methylthiazolidin-4-one]	43.2 ± 0.21 µM	4.25 ± 0.38 µM	thermal stability of CDK2 (CETSA) (CDK2 [1]): substantially increased; CDK2 stability to pronase digestion (DARTS) (CDK2 [2]): enhanced stability; viability of U251 cells in a 3D model [3]: decreased; intracellular ROS levels (U251 cells [4]): significantly increased; cell cycle distribution (U251 cells [5]): decrease in the G2/M population, with a concomitant increase in the S phase population; number of viable cells that invaded through the Matrigel (U251 cells [6]): significantly decreased; IC50 [7]: 3.12 to 4.25 µM and < 5 µM; Bax expression ([8]; U251, C5 treatment 24 h): upregulation; Bcl-2 expression ([8]; U251, C5 treatment 24 h): dose-dependent downregulation; PARP cleavage [8, 11]: enhanced; caspase-3 activation [8, 11]: enhanced; LC3B-II expression ([8]; U251, C5 treatment): significantly enhanced; P62 expression ([8]; U251, C5 treatment): significantly enhanced; apoptosis rate (U251 cells [9]): 48.56%; mitochondrial membrane potential, JC-1 fluorescence (U251 cells [10]): dose-dependent decrease in red fluorescence
> 50 µM	36.8 ± 0.43 µM	CN1C(=O)C(=Cc2ccc(Cl)cc2)SC1=NN=CC1=CCC2CC1C2(C)C (stereo not shown) [C7, 5–(4-Chlorobenzylidene)-2-(((6,6-dimethylbicyclo[3.1.1]hept-2-en-2-yl)methylene) hydrazineylidene)-3-methylthiazolidin-4-one]	> 50 µM	33.4 ± 0.77 µM	–
9.37 ± 0.43 µM	10.2 ± 0.65 µM	COc1cc(C=C2SC(=NN=CC3=CCC4CC3C4(C)C)N(C)C2=O)ccc1O (stereo not shown) [C6, 2-(((6,6-Dimethylbicyclo[3.1.1]hept-2-en-2-yl)methylene)hydrazineylidene)-5–(4-hydroxy-3-methoxybenzylidene)-3-methylthiazolidin-4-one]	> 50 µM	7.5 ± 0.98 µM	–
7.56 ± 0.76 µM	9.7 ± 0.64 µM	CN1C(=O)C(=Cc2ccc(N(C)C)cc2)SC1=NN=CC1=CCC2CC1C2(C)C (stereo not shown) [C4, 5–(4-(Dimethylamino)benzylidene)-2-(((6,6-dimethylbicyclo[3.1.1]hept-2-en-2-yl)methylene)hydrazineylidene)-3-methylthiazolidin-4-one]	> 50 µM	8.8 ± 0.31 µM	–
–	–	COc1ccc(C=C2SC(=NN=CC3=CCC4CC3C4(C)C)N(C)C2=O)cc1 (stereo not shown) [C2, 2-(((6,6-Dimethylbicyclo[3.1.1]hept-2-en-2-yl)methylene)hydrazineylidene)-5–(4-methoxybenzylidene)-3-methylthiazolidin-4-one]	–	–	IC50 (U87): 11.2 ± 0.26 µM; IC50 (U251): 14 ± 0.71 µM; IC50 (LO2; mean ± SD of three independent experiments): > 50 µM; IC50 (T98G): 10.1 ± 0.8 µM
9.86 ± 0.09 µM	8.29 ± 0.78 µM	CN1C(=O)C(=Cc2ccc(O)c(Cl)c2)SC1=NN=CC1=CCC2CC1C2(C)C (stereo not shown) [C10, 5–(3-Chloro-4-hydroxybenzylidene)-2-(((6,6-dimethylbicyclo[3.1.1]hept-2-en-2-yl)methylene)hydrazineylidene)-3-methylthiazolidin-4-one]	> 50 µM	8.69 ± 0.17 µM	–
12.3 ± 0.65 µM	15.2 ± 0.32 µM	CSc1ccc(C=C2SC(=NN=CC3=CCC4CC3C4(C)C)N(C)C2=O)cc1 (stereo not shown) [C3, 2-(((6,6-Dimethylbicyclo[3.1.1]hept-2-en-2-yl)methylene)hydrazineylidene)-3-methyl-5–(4-(methylthio)benzylidene)thiazolidin-4-one]	> 50 µM	16.7 ± 0.67 µM	–
